The values below come from patent publication US8741934B2, “Inhibitors of ion channels” (Pfizer Limited, priority 2007, dated 2014).

One data set deals with T1, hSCN3A sodium channels (Homo sapiens, UniProt Q9NY46).
T1 construct: expressed in transfected cells
In words: hSCN3A electrophysiology, whole-cell patch-clamp or PatchXpress 7000, estimated IC-50 (Table B). The data set is classed as cell-based. The following applies: estimated IC-50; hSCN3A cells, whole-cell patch-clamp or PatchXpress 7000; read-out: SCN3A EIC-50. In short, it runs like this: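 Stably transfected HEK cells, whole-cell voltage clamp at 22-24° C, manual or PatchXpress 7000. Cells held at empirically determined inactivation V1/2; current evoked by 20 msec step to 0 mV after 8 sec prepulse to V1/2.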

The format of data set [1] is in vivo, rat. To be noted: in contrast to compounds I, II and III. Here is the method: The bioanalysis of plasma samples from rats dosed with LC/MS/MS detection of sulfathiazole as measured against an internal standard. Extraction was performed on-line with a turbulent flow chromatography system (HTLC). The transfer from the HTLC to the analytical HPLC is automatic. The mass spectrometer was operated in API ionization mode with an electrospray interface between the analytical HPLC and the mass spectrometer. Multiple reaction monitoring (mrm) detection was used for each analyte on a triple quadrupole mass spectrometer.
2. Materials • HPLC grade reagents were used such as: • Water (Hydro Services Picosystem water filtration) • Methanol (Fisher Ultima) • Ammonium formate (Sigma), and • Formic acid (Sigma) • Rat plasma • sulfathiazole • internal standard B. Instrument Conditions • Mass spectrometer: • Positive ion, mrm detection at • m/z 256 to m/z 108 for ICA-000024 • m/z 342 to m/z 218 for ICA-18756 (internal standard) • 100 ms Dwell time • Cone voltage, capillary voltage and collision energy were optimized for each compound • Source Temperature: 125 C, Desolvation temperature: 325 C • Cone gas at 73 L/hr, and Desolvation gas at 740 L/hr C. Chromatography Conditions
1. Mobile Phases: • A: 98% water:2% methanol with • 4 mM ammonium formate, 0.1% formic acid • B: 98% methanol:2% water with • 4 mM ammonium formate, 0.1% formic acid
2. HTLC Turbulent Flow Quaternary Pump • Column: Cohesive Cyclone Turbo-Flow • Timetable:
3. Analytical Binary Pump • Column: Phenomenex Synergi Hydro-RP 4u 50 mm×2.1 mm • Timetable:
4. Injection Volume • 20 μL D. Preparation of Standards and Samples
Plasma standards and samples were prepared for injection according to the standard operating procedure, HTLC Plasma Analysis by LC/MS/MS.

The target in the next data set is Nav1.3 (Homo sapiens, UniProt Q9NY46). To be noted: read-out: TTX IC-50; cited from earlier work.
Nav1.3, sequence (Q9NY46 whole entry, looked up): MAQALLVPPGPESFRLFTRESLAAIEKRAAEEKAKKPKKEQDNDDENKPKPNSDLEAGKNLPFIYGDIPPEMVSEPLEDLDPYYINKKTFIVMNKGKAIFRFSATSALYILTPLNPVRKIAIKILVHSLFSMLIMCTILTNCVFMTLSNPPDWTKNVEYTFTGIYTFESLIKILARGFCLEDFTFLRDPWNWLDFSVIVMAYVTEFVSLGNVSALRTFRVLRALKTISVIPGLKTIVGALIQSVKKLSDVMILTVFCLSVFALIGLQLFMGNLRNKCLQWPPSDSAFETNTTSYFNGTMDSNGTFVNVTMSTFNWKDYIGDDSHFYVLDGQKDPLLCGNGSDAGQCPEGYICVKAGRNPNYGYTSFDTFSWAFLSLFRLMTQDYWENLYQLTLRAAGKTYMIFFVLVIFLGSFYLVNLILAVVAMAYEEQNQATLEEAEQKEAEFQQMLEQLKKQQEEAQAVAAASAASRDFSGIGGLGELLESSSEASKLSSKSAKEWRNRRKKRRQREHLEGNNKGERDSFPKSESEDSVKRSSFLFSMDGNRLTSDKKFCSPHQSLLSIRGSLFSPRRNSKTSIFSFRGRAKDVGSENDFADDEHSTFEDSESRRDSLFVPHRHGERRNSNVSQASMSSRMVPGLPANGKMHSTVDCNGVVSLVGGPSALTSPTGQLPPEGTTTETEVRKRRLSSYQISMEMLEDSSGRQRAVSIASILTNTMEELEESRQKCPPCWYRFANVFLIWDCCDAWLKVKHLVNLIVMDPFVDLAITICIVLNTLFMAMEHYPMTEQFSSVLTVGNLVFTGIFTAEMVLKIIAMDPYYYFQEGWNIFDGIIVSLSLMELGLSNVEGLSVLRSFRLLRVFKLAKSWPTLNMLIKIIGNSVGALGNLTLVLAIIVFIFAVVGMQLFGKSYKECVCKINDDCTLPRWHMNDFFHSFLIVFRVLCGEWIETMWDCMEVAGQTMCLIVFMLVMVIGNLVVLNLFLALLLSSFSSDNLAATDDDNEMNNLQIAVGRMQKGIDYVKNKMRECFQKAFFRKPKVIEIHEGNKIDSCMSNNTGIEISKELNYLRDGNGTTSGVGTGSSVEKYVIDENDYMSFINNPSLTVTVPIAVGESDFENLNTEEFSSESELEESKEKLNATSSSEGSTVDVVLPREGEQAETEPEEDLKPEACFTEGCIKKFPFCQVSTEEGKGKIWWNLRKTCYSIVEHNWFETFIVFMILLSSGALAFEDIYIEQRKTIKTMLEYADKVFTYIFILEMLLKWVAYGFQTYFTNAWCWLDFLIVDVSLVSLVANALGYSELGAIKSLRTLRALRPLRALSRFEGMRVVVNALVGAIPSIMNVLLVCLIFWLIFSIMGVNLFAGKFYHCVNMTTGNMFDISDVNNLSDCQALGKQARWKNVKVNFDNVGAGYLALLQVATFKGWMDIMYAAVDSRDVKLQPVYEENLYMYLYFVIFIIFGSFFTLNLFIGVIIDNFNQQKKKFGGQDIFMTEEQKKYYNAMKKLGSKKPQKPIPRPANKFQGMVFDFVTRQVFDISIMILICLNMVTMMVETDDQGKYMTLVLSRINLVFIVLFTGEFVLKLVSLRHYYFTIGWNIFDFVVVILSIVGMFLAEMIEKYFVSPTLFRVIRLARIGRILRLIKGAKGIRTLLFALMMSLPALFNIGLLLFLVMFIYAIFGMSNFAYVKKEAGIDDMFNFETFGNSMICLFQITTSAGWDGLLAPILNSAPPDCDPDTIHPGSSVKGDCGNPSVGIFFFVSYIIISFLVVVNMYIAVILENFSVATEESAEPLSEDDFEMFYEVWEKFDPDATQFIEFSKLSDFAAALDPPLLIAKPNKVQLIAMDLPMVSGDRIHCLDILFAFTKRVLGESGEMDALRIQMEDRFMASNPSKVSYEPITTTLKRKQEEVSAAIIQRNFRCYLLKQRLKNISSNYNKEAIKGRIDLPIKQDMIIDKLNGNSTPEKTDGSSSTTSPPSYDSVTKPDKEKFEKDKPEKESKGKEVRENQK
The next data set addresses Nav1.6 (Homo sapiens, UniProt Q9UQD0). To be noted: read-out: TTX IC-50; cited from earlier work.
The target of a further data set is Nav1.8 (Homo sapiens, UniProt Q9Y5Y9). The following applies: read-out: TTX IC-50; cited from earlier work.
Another data set has as its target Nav1.9 (Homo sapiens, UniProt Q9UI33). To be noted: read-out: TTX IC-50; cited from earlier work.
Another data set concerns the target Nav1.1 (Homo sapiens, UniProt P35498). The following applies: read-out: TTX IC-50; cited from earlier work.
The target of the next data set is Nav1.2 (Homo sapiens, UniProt Q99250). To be noted: read-out: TTX IC-50; cited from earlier work.

T1 sequence (Q9NY46 whole entry): as the sequence (Q9NY46 whole entry, looked up) above
Nav1.6, sequence (Q9UQD0 whole entry, looked up): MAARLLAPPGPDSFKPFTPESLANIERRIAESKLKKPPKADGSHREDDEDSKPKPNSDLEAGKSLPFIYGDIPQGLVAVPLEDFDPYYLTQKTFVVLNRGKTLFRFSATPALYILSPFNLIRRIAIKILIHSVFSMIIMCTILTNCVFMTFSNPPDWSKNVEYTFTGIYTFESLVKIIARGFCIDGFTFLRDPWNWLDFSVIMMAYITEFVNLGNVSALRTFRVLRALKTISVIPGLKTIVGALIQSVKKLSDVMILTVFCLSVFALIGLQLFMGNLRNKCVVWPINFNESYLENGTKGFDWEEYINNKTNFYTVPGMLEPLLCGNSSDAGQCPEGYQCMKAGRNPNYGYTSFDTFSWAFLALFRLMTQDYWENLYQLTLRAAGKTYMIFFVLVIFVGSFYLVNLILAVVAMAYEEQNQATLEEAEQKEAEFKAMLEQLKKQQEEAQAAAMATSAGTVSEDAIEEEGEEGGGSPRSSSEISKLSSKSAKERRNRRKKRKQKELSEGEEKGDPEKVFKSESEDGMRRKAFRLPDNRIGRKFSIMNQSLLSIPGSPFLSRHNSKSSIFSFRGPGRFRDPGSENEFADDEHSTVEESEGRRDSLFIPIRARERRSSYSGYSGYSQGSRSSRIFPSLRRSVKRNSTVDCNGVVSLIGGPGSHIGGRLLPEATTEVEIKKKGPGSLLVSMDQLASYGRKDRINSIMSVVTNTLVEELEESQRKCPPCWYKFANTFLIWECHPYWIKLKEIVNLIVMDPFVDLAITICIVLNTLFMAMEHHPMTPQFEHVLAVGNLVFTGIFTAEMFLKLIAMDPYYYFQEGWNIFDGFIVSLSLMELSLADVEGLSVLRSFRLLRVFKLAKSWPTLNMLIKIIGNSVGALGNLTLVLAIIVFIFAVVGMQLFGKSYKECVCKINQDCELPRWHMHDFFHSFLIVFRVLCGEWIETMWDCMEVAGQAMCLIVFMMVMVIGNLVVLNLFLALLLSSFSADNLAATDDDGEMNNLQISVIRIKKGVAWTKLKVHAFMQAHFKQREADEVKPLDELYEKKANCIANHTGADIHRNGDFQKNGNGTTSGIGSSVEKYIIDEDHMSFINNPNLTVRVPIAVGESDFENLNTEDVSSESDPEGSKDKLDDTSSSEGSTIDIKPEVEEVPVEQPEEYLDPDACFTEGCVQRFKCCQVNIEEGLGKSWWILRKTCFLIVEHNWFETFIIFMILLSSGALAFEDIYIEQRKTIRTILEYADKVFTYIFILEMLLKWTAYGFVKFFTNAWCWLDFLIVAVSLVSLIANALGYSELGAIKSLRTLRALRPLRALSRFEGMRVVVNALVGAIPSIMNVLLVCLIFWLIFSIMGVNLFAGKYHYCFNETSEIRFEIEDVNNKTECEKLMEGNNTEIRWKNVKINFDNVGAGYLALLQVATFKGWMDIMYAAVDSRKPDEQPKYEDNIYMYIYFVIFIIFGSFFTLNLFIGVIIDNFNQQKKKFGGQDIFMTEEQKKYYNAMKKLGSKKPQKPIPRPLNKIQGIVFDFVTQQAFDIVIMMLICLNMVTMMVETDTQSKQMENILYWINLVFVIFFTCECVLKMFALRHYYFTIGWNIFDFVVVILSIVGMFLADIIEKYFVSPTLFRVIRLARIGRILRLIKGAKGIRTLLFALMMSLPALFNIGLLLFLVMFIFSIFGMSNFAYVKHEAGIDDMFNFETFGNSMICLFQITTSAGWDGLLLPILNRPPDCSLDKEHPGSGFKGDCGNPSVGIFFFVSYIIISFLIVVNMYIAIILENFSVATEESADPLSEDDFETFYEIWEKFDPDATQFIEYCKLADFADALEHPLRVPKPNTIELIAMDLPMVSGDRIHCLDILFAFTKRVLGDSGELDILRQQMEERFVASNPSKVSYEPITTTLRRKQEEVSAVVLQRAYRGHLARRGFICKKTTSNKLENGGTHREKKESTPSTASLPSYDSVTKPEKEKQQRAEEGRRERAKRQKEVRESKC

Take `O=C(NCCOc1ccc(Cl)cc1)c1ccc(S(=O)(=O)Nc2nccs2)cc1` [Example 186, N-[2-(4-chlorophenoxy)ethyl]-4-[(1,3-thiazol-2-ylamino)sulfonyl]benzamide]: the IC50 on hSCN3A sodium channels is 0.42 µM. Also, the “metabolism to the aniline containing sulfathiazole” value in data set [1] is “do not metabolize to form the aniline containing sulfathiazole”.

As for `CC(C)(C)CCNC(=O)c1ccc(S(=O)(=O)Nc2nccs2)cc1` [Example 418, N-(3,3-dimethylbutyl)-4-[(1,3-thiazol-2-ylamino)sulfonyl]benzamide], on hSCN3A sodium channels, the IC50 was 2.74 µM. Besides, the “metabolism to the aniline containing sulfathiazole” value in data set [1] was “do not metabolize to form the aniline containing sulfathiazole”.

Take `NC1=N[C@H](O)[C@H]2[C@H]3O[C@]4(O)O[C@@H]([C@@H](O)[C@@]2(N1)[C@@H]4O)[C@]3(O)CO` [TTX, tetrodotoxin]: the IC50 on Nav1.3 is 0.015 µM; at Nav1.6 it was 0.006 µM; on Nav1.8, 50 µM; on Nav1.9, 1 µM; on Nav1.1, 0.01 µM; on Nav1.2, 0.01 µM.
